In one assay the target is Trypsin (Sus scrofa, UniProt P00761). Description: trypsin protease activity blockade – biochemical, quenched peptide fluorescence, cherry-pick, selectivity assay for Rce1 protease inhibitor project, dose response (AID 488789).
The next assay deals with CAAX prenyl protease 1 (Saccharomyces cerevisiae S288c, UniProt P47154). As to the kind of experiment: yeast CAAX protease Ste24 inhibition – biochemical, S. cerevisiae, plate reader, cherry-pick, dose response (AID 488815).
The target in a further assay is Cytochrome P450 2D6 (Homo sapiens, UniProt P10635).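 Also: CYP2D6 member of a cytochrome P450 panel assay.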
Assay [1] addresses Lysine-specific demethylase 4C (Homo sapiens, UniProt Q9H3R0). Description: inhibition of JMJD2C H3K9me3 demethylation – biochemical, DELFIA europium, cherry-picked samples, dose response (AID 488835). Format: functional.
Assay [2] deals with Lysine-specific demethylase 4A (Homo sapiens, UniProt O75164). As to the kind of experiment: inhibition of JMJD2A H3K9me3 demethylation – biochemical, DELFIA europium, cherry-picked samples, selectivity assay for GASC-1 inhibitor project, dose response (AID 488840).
Another assay has as its target SUMO E1/E2 (Homo sapiens, UniProt P63279+Q9UBE0+Q9UBT2). Description: SAR analysis of SUMOylation using HTRF in an in-Vitro dose response assay. [Related pubchem assays (depositor defined):AID2006, AID2011, AID2018, AID2069, AID2658]. Format: functional.
The target of assay [3] is T1, Voltage-gated N-type calcium channel alpha-1B subunit/Amyloid beta A4 precursor protein-binding family A member 1 (Homo sapiens, UniProt Q00975+Q02410). As to the kind of experiment: disruptors of Mint-PDZ/N-type channel peptide interaction – biochemical, HTRF, SAR follow-up (AID 2489). Format: functional. Background: TR-FRET usually uses a lanthanide donor and a delayed reading to cut background.

Assay [4] has as its target T1, Voltage-gated N-type calcium channel alpha-1B subunit/Amyloid beta A4 precursor protein-binding family A member 1. Description: disruptors of Mint-PDZ/N-type channel peptide interaction – biochemical, HTRF, set 2, SAR follow-up (AID 434980). Format: functional.
Assay [5] addresses Kappa-type opioid receptor (Homo sapiens, UniProt P41145). As to the kind of experiment: SAR analysis of small molecule agonists of the kappa opioid receptor via a luminescent beta-arrestin assay - Set 3. [Related pubchem assays (depositor defined):AID1777, AID1785, AID1786, AID1966, AID2133, AID2136, AID2284, AID2500]. Format: functional.
The target of assay [6] is T2, Alkaline phosphatase, tissue-nonspecific isozyme (Homo sapiens, UniProt P05186).
T2 sequence (P05186 whole entry): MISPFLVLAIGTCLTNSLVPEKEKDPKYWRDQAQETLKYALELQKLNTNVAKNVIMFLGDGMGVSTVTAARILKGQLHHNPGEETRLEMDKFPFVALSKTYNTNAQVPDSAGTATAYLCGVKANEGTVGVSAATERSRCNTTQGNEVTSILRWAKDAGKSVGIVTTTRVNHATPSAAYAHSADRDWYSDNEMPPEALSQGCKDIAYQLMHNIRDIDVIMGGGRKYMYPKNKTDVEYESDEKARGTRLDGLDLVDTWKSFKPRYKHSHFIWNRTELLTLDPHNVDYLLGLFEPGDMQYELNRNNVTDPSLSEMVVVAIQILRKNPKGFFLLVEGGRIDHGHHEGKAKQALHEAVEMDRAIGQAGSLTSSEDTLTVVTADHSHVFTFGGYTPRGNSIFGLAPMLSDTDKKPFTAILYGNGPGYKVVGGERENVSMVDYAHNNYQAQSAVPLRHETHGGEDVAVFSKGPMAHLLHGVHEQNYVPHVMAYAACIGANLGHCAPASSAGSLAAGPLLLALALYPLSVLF
As to the kind of experiment: activation of tissue-nonspecific alkaline phosphatase – biochemical, TNAP isozyme, human IAP uHTS hits, selectivity assay for human IAP activator project, dose response (AID 488886).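 Also: potency of compounds raising TNAP activity as a selectivity check on IAP activators.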 Format: functional.

Assay [7] concerns the target T3, Intestinal-type alkaline phosphatase (Homo sapiens, UniProt P09923). Description: activation of human intestinal alkaline phosphatase – biochemical, luminescent, uHTS hits, set 2, dose response (AID 488817).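 Also: potency of activators that raise enzyme activity.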 Format: functional.
For assay [8], the target named is T3, Intestinal-type alkaline phosphatase. Description: human intestinal alkaline phosphatase activators, dose response, biochemical, luminescence, uHTS hits (AID 463120). Format: functional.
The target of assay [9] is Intestinal-type alkaline phosphatase (Mus musculus, UniProt P24822). Description: PubChem AID 488874. Format: functional.

The source made the active and inactive calls.

T3 sequence (P09923 whole entry): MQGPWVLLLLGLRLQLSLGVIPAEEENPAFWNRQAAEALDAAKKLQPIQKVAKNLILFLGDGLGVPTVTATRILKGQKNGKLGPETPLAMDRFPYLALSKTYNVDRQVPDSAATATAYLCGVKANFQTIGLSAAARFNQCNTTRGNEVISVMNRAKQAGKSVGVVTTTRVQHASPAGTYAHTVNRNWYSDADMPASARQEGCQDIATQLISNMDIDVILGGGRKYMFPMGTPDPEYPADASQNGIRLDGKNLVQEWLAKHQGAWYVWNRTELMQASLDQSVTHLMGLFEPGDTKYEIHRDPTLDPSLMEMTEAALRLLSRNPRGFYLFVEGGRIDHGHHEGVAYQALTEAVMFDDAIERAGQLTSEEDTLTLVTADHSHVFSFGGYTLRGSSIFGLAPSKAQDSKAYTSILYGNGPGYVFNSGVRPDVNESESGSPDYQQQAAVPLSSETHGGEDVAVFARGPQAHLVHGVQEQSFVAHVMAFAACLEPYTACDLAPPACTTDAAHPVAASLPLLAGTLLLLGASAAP
T1 sequence (Q00975 whole entry): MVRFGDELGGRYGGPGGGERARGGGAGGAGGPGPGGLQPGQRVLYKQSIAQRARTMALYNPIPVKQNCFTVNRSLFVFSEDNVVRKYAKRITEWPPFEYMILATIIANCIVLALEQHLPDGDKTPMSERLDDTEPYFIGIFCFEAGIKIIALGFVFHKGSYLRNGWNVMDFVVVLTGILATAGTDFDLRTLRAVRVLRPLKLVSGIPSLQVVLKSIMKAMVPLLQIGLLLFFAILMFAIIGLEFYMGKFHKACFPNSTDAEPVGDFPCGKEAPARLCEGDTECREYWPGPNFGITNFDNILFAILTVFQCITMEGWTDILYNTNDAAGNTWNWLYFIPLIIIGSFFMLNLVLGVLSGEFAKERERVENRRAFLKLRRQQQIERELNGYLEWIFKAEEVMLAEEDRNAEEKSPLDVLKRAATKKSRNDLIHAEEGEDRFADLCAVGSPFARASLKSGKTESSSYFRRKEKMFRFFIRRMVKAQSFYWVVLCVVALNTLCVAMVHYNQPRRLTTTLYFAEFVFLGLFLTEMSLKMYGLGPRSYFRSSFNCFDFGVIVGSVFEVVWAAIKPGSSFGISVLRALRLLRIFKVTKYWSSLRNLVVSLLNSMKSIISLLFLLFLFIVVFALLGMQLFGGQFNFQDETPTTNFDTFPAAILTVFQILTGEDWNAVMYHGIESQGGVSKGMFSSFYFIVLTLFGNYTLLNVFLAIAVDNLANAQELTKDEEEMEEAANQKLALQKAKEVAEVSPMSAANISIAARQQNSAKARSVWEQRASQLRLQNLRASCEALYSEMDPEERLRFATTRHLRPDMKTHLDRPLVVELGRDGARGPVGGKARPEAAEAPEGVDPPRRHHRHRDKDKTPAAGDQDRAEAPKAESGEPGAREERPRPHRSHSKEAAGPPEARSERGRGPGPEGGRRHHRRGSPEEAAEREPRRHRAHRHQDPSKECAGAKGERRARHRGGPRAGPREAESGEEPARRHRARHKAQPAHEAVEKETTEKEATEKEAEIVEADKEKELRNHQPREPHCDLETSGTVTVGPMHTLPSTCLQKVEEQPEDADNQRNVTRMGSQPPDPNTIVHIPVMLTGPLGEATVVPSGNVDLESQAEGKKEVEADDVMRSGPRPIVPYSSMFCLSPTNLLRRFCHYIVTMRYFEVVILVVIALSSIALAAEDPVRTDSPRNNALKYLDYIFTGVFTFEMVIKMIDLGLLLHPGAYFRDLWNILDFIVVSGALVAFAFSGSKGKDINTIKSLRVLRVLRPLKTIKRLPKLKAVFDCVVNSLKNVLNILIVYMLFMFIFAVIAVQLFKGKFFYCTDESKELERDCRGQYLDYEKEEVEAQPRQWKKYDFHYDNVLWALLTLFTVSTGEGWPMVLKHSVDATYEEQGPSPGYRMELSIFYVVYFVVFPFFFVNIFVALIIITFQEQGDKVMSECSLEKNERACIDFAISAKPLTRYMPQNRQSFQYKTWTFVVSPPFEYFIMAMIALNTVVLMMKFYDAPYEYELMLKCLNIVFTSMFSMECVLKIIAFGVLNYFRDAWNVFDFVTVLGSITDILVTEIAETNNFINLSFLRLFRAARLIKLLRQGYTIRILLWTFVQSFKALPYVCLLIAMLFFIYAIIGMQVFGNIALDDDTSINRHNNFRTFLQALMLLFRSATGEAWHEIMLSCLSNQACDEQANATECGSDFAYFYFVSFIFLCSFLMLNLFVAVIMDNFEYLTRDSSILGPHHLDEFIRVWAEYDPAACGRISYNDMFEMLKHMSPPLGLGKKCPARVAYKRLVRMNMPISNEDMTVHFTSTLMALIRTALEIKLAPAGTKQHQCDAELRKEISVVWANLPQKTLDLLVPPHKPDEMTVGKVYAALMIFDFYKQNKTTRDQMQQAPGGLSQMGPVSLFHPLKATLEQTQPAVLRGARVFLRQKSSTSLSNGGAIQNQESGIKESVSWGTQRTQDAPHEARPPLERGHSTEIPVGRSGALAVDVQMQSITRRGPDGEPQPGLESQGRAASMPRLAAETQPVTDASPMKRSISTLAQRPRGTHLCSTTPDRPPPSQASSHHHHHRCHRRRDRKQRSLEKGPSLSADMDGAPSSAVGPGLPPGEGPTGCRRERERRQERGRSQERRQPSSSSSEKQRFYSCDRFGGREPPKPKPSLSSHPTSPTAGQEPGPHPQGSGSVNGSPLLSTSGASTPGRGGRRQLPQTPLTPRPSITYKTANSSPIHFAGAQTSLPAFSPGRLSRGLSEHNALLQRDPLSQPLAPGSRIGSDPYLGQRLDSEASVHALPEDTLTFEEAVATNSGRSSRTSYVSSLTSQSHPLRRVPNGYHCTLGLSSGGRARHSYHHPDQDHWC
T1 sequence (Q02410 whole entry): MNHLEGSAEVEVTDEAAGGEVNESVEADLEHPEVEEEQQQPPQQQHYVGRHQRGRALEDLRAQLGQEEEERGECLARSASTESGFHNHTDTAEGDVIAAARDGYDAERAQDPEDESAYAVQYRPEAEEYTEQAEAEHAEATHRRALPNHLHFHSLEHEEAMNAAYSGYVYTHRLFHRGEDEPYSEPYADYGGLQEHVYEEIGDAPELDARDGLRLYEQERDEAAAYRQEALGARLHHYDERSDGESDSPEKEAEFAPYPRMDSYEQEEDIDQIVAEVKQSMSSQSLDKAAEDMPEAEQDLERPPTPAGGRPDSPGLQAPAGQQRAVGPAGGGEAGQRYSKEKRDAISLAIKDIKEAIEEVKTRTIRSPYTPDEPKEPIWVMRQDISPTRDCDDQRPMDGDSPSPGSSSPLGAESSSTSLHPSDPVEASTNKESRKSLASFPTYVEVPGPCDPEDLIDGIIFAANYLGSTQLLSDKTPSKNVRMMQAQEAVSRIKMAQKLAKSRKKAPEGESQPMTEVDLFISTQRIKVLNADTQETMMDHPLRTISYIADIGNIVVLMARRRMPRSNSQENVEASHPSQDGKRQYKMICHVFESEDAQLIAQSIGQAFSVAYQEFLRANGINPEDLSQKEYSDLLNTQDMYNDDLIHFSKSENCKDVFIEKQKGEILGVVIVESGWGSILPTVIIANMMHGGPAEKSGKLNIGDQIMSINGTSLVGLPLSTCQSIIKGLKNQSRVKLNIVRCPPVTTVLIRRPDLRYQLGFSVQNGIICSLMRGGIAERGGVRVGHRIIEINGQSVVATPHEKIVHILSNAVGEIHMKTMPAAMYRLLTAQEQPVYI
Trypsin, sequence (P00761 whole entry): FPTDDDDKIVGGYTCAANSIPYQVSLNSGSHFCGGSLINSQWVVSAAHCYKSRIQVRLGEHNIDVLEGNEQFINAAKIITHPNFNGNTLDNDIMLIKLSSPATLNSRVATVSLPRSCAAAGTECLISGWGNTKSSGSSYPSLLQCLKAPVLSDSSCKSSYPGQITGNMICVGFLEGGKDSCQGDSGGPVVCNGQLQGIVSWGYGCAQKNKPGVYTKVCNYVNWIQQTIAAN
Kappa-type opioid receptor, sequence (P41145 whole entry): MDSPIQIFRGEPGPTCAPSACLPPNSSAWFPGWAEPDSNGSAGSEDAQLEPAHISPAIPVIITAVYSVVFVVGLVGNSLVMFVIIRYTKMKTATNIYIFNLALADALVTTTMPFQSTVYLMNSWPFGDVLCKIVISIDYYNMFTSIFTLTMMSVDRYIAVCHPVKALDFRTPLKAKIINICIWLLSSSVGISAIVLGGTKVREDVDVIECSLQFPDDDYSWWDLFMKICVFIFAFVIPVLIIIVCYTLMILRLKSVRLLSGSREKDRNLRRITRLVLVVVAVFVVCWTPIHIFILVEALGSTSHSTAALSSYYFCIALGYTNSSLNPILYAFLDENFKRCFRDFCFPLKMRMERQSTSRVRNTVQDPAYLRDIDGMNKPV
CAAX prenyl protease 1, sequence (P47154 whole entry): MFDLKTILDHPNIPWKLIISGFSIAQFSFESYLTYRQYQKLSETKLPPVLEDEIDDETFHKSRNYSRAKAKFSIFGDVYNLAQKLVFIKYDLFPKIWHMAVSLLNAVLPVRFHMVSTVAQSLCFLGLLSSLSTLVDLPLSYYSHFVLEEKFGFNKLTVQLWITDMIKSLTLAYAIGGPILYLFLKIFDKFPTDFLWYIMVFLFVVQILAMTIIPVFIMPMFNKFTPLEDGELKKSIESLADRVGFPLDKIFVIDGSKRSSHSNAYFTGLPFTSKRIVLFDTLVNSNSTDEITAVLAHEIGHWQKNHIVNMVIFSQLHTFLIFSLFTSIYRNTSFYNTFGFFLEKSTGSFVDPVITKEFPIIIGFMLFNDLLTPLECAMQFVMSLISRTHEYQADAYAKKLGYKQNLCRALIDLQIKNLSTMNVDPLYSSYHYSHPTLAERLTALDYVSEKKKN

As a reminder, the AC50 is the concentration giving half of the maximal activity seen. As for `C=CCNc1oc(/C=C/c2ccccc2)nc1C#N`, the AC50 is 23.5 µM (active) on Trypsin, 63.7 µM (active) on CAAX prenyl protease 1 and 20 µM (inconclusive) on Cytochrome P450 2D6.

Consider `CCCCn1c(-c2ccsc2)nc2c1c(=O)[nH]c(=O)n2CCC`, for which the results for the AC50 in assay [1] and in assay [2] were 4.19 µM (active) and 12.2 µM (active), respectively.

As a reminder, the IC50 is the midpoint of a concentration-inhibition curve. Take `O=C(OCC(=O)N1CCc2ccccc2C1)c1cc(-c2ccco2)nc2ccccc12`: the IC50 at SUMO E1/E2 was 3.76 µM (active); in assay [3], > 56.8 µM (inactive); in assay [4], 10.2 µM (active).

Broadly, the EC50 is the concentration at which the effect is half-maximal. As to `Brc1ccc(CSc2nnc(-c3ccncc3)n2Cc2ccco2)cc1`, in assay [5], the EC50 was > 20 µM (inactive).

As for `CCOc1cc(/C=N/NC(=O)C(=O)N/N=C/c2ccc(O)c(OCC)c2)ccc1O`, the EC50 was > 100 µM (inactive) in assay [6], 100 µM (inactive) in [7] and 29.1 µM (active) in assay [8]. Also, the IC50 in assay [9] is > 100 µM (inactive).
